Measurements: patent US20190224202A1, “STABLE LIQUID FORMULATIONS OF PEMETREXED” (LEIUTIS PHARMACEUTICALS PVT. LTD., priority 2015, published 2019)

Tests used:
[1] = Solubility of Pemetrexed diacid in water (statement); format: physicochemical
[2] = Solubility study of Pemetrexed diacid in various amino acids in water; format: physicochemical; conditions: 25° C.
Experimental: Solubility studies of Pemetrexed were performed with various amino acids alone and in combination with other excipients in water at 25° C. to check the solubility.

Nc1nc2[nH]cc(CCc3ccc(C(=O)N[C@@H](CCC(=O)O)C(=O)O)cc3)c2c(=O)[nH]1 [Pemetrexed diacid, N-{4-[2-(2-Amino-4-oxo-4,7-dihydro-1H-pyrrolo[2,3-d]pyrimidin-5-yl)ethyl]benzoyl}-L-glutamic acid]
Solubility in water [1]: practically insoluble
Description (solubility study) ([2]; Pemetrexed diacid 50 mg, Arginine 116 mg, Water 1 ml): Clear
Description (solubility study) ([2]; Pemetrexed diacid 50 mg, Arginine 133 mg, Water 1 ml): Clear
Description (solubility study) ([2]; Pemetrexed diacid 50 mg, Arginine 166 mg, Water 1 ml): Clear
Description (solubility study) ([2]; Pemetrexed diacid 100 mg, Histidine 100 mg, Glycine 50 mg, Ammonium acetate 100 mg, Sucrose 50 mg, Water 2.5 ml): Clear
Description (solubility study) ([2]; Pemetrexed diacid 100 mg, Histidine 100 mg, Glycine 50 mg, Ammonium acetate 100 mg, Water 2.5 ml): Clear
Description (solubility study) ([2]; Pemetrexed diacid 100 mg, Histidine 100 mg, Glycine 100 mg, Ammonium acetate 100 mg, Sucrose 50 mg, Water 2.5 ml): Clear
Description (solubility study) ([2]; Pemetrexed diacid 100 mg, Histidine 100 mg, Glycine 100 mg, Ammonium acetate 100 mg, Water 2.5 ml): Clear
Description (solubility study) ([2]; Pemetrexed diacid 100 mg, Histidine 100 mg, Glycine 100 mg, Sucrose 50 mg, Water 2.5 ml): Clear
Description (solubility study) ([2]; Pemetrexed diacid 100 mg, Histidine 100 mg, Glycine 100 mg, Water 2.5 ml): Clear
Description (solubility study) ([2]; Pemetrexed diacid 100 mg, Histidine 100 mg, Glycine 200 mg, Ammonium acetate 100 mg, Sucrose 50 mg, Water 2.5 ml): Clear
Description (solubility study) ([2]; Pemetrexed diacid 100 mg, Histidine 100 mg, Glycine 200 mg, Ammonium acetate 100 mg, Water 2.5 ml): Clear
